Results reported in ChEMBL document CHEMBL3861981 (J Med Chem, 2016).

Assays:
Hepatitis C virus [1] = experiment: Antiviral activity against HCV genotype 1b Con1 expressing NS3 protease infected in human Huh7.5 cells assessed as reduction in viral RNA replication by luciferase reporter gene assay; format: functional, cell-based, Hepacivirus hominis; details: genotype 1b Con1, Huh-7
[2] = Half life in human liver microsomes; format: ADME
[3] = Inhibition of recombinant full length HCV genotype 3a S52 NS3/4A protease preincubated for 30 mins followed by substrate addition measured by FRET assay; parameters: species or system Hepatitis C virus S52
[4] = Half life in cannulated Sprague-Dawley rat plasma at 5 mg/kg, iv administered as 10 mins infusion by LC/MS/MS analysis; format: ADME, organism-based
[5] = Oral bioavailability in cannulated Sprague-Dawley rat plasma at 15 mg/kg administered via gavage measured up to 24 hrs post dose by LC/MS/MS analysis; format: ADME, organism-based
[6] = AUC in cannulated Sprague-Dawley rat plasma at 15 mg/kg administered via oral gavage measured up to 24 hrs post dose by LC/MS/MS analysis; format: ADME, organism-based; parameters: dose 15 mg/kg, time < 24 hr, route oral
[7] = Drug uptake in cannulated Sprague-Dawley rat liver at 15 mg/kg administered via oral gavage measured at 24 hrs post dose by LC/MS/MS analysis; format: ADME, organism-based; details: read-out: Drug uptake
[8] = Half life in Beagle dog plasma at 1 mg/kg, iv administered as 5 mins infusion by LC/MS/MS analysis; format: ADME, organism-based, Canis lupus familiaris
[9] = Oral bioavailability in Beagle dog plasma at 3 mg/kg administered via gavage measured up to 24 hrs post dose by LC/MS/MS analysis; format: ADME, organism-based, Canis lupus familiaris; details: beagle, plasma
[10] = AUC in Beagle dog plasma at 3 mg/kg administered via oral gavage measured up to 24 hrs post dose by LC/MS/MS analysis; format: ADME, organism-based, Canis lupus familiaris; parameters: dose 3 mg/kg, time < 24 hr, route oral
[11] = Cardiotoxicity in rabbit heart assessed as change in heart rate at 10 uM perfused for 20 mins measured for 1 min by electrophysiology method relative to control; format: toxicity, tissue-based, Oryctolagus cuniculus
[12] = Clearance in cynomolgus monkey plasma at 3 mg/kg, iv administered as 5 mins infusion measured up to 24 hrs post dose by LC/MS/MS analysis; format: ADME, organism-based, Macaca fascicularis
[13] = Oral bioavailability in cynomolgus monkey plasma at 10 mg/kg administered via gavage measured up to 24 hrs post dose by LC/MS/MS analysis; format: ADME, organism-based, Macaca fascicularis; details: plasma
[14] = AUC in cynomolgus monkey plasma at 10 mg/kg administered via oral gavage measured up to 24 hrs post dose by LC/MS/MS analysis; format: ADME, organism-based, Macaca fascicularis; parameters: dose 10 mg/kg, time < 24 hr, route oral; details: plasma
[15] = Cardiotoxicity in rabbit heart assessed as change in heart rate at 10 uM perfused for 60 mins measured every 10 mins during perfusion by electrophysiology method relative to control; format: toxicity, tissue-based, Oryctolagus cuniculus; details: 1 h
[16] = Cardiotoxicity in rabbit heart assessed as change in sinoatrial node recovery time at 10 uM perfused for 20 mins measured for 1 min by electrophysiology method relative to control; format: toxicity, tissue-based, Oryctolagus cuniculus
[17] = Cardiotoxicity in rabbit heart assessed as change in sinoatrial node recovery time at 10 uM perfused for 60 mins measured every 10 mins during perfusion by electrophysiology method relative to control; format: toxicity, tissue-based, Oryctolagus cuniculus; details: 1 h
[18] = Plasma concentration in rabbit at 30 mg/kg, iv administered as 10 mins infusion measured after 60 mins; format: ADME, organism-based, Oryctolagus cuniculus
[19] = Cytotoxicity against human HepG2 cells assessed as decrease in cell viability
[20] = Cytotoxicity against human HuH7 cells assessed as decrease in cell viability
[21] = Cytotoxicity against human HeLa cells assessed as decrease in cell viability
[22] = Cytotoxicity against human MRC5 cells assessed as decrease in cell viability
Salmonella typhimurium [23] = experiment: Genotoxicity in Salmonella typhimurium in presence of S9 fraction by Ames test; format: toxicity, organism-based; details: salmonella enterica subsp. enterica serovar typhimurium
Rattus norvegicus = experiment: Toxicity in rat at 30 to 300 mg/kg administered as single dose; format: organism-based; details: in vivo
[24] = Toxicity in dog at 20 to 200 mg/kg administered as single dose; format: organism-based, Canis lupus familiaris; details: in vivo
Salmonella typhimurium [25] = experiment: Genotoxicity in Salmonella typhimurium in absence of S9 fraction by Ames test; format: toxicity, organism-based; details: salmonella enterica subsp. enterica serovar typhimurium
[26] = Toxicity in cynomolgus monkey assessed as gastrointestinal irritation at 10 mg/kg, po administered through gavage; format: organism-based, Macaca fascicularis; details: in vivo
[27] = Inhibition of recombinant full length HCV genotype 2b HC-J8 NS3 protease in genotype 2a replicon cells by luciferase reporter gene assay; format: cell-based, Hepatitis C virus subtype 2b; details: Hepatitis C virus
[28] = Cardiotoxicity in anesthetized rabbit assessed as prolongation of QTcf interval at 30 mg/kg, iv administered as 10 mins infusion by electrophysiology assay; format: toxicity, organism-based, Oryctolagus cuniculus; details: in vivo
[29] = Cardiotoxicity in anesthetized rabbit assessed as prolongation of QTcv interval at 30 mg/kg, iv administered as 10 mins infusion by electrophysiology assay; format: toxicity, organism-based, Oryctolagus cuniculus; details: in vivo
[30] = Cardiotoxicity in dog assessed as prolongation of QTcv interval at 30 to 100 mg/kg administered as single dose by electrophysiology assay; format: toxicity, organism-based, Canis lupus familiaris; details: in vivo
[31] = Cardiotoxicity in dog assessed as prolongation of QTcf interval at 30 to 100 mg/kg administered as single dose by electrophysiology assay; format: toxicity, organism-based, Canis lupus familiaris; details: in vivo
[32] = Cardiotoxicity in dog assessed as effect on QRS interval at 30 to 100 mg/kg administered as single dose by electrophysiology assay; format: toxicity, organism-based, Canis lupus familiaris; details: in vivo
[33] = Cardiotoxicity in dog assessed as effect on heart rate at 30 to 100 mg/kg administered as single dose by electrophysiology assay; format: toxicity, organism-based, Canis lupus familiaris; details: in vivo
[34] = Cardiotoxicity in dog assessed as effect on sinoatrial node recovery time at 30 to 100 mg/kg administered as single dose by electrophysiology assay; format: toxicity, organism-based, Canis lupus familiaris; details: in vivo
[35] = Inhibition of recombinant full length HCV genotype 1a H77 NS3/4A protease preincubated for 30 mins followed by substrate addition measured by FRET assay; parameters: species or system Hepatitis C virus (isolate H77)
[36] = Inhibition of recombinant full length HCV genotype 1b J4L6S NS3/4A protease preincubated for 30 mins followed by substrate addition measured by FRET assay; parameters: species or system Hepatitis C virus subtype 1b
[37] = Inhibition of recombinant full length HCV genotype 2a HC-J6 NS3/4A protease preincubated for 30 mins followed by substrate addition measured by FRET assay; parameters: species or system Hepatitis C virus subtype 2a
[38] = Inhibition of recombinant full length HCV genotype 4a ED43 NS3/4A protease preincubated for 30 mins followed by substrate addition measured by FRET assay; parameters: species or system Hepatitis C virus ED43
[39] = Inhibition of recombinant full length HCV genotype 5a SA13 NS3/4A protease preincubated for 30 mins followed by substrate addition measured by FRET assay; parameters: species or system Hepatitis C virus SA13
[40] = Inhibition of recombinant full length HCV genotype 6a HK-6A NS3/4A protease preincubated for 30 mins followed by substrate addition measured by FRET assay; parameters: species or system Hepatitis C virus subtype 6a
[41] = Inhibition of recombinant full length HCV genotype 4a ED43 NS3 protease in genotype 1b con1 replicon cells by luciferase reporter gene assay; details: Hepatitis C virus
[42] = Inhibition of recombinant full length HCV genotype 3a S52 NS3 protease in genotype 2a replicon cells by luciferase reporter gene assay; format: cell-based; details: Hepatitis C virus
Hepatitis C virus [43] = experiment: Antiviral activity against HCV genotype 1a H77 in HCV replicon cells assessed as reduction in viral RNA replication by luciferase reporter gene assay
Hepatitis C virus [44] = experiment: Antiviral activity against HCV genotype 2a JHF-1 in HCV replicon cells assessed as reduction in viral RNA replication by luciferase reporter gene assay; details: genotype 2a JFH-1
[45] = Drug uptake in rabbit heart atrium measured after 60 mins; format: ADME, Oryctolagus cuniculus, Cardiac atrium; details: read-out: Drug uptake

COc1cnc(O[C@@H]2C[C@@H](C(=O)N[C@]3(C(=O)NS(=O)(=O)C4CC4)C[C@H]3C3CC3)N(C(=O)[C@@H](NC(=O)O[C@H](C)C(F)(F)F)C3CCCCC3)C2)c2cc(Cl)ccc12
EC50 (Hepatitis C virus [1]): 4.5 nM | half-life [2]: 1.08 h | IC50 [3]: 1400 nM | half-life [4]: 8.6 h | bioavailability [5]: 86.4% | AUC at 24 h [6]: 21.1 µM·h | concentration at 24 h [7]: 51 µM | half-life [8]: 5.1 h | bioavailability [9]: 57.5% | AUC at 24 h [10]: 8.3 µM·h | Activity [11]: -11% | clearance [12]: 9.4 mL/min/kg | bioavailability [13]: 15.4% | AUC at 24 h [14]: 4.4 µM·h | Activity [15]: -16% | Activity [16]: -3% | Activity [17]: 22% | concentration at 1 h [18]: 253 µM | CC50 [19]: 8000 to 14000 nM | CC50 [20]: 8000 to 14000 nM | CC50 [21]: 8000 to 14000 nM | CC50 [22]: 8000 to 14000 nM | Activity (Salmonella typhimurium [23]): Non-Toxic | Activity (Rattus norvegicus): Non-Toxic | Activity [24]: Non-Toxic | Activity (Salmonella typhimurium [25]): Non-Toxic | Activity [26]: Non-Toxic | EC50 [27]: 562 nM | Activity [28]: Toxic | Activity [29]: Non-Toxic | Activity [30]: Non-Toxic | Activity [31]: Non-Toxic | Activity [32]: Non-Toxic | Activity [33]: Non-Toxic | Activity [34]: Non-Toxic | IC50 [35]: 1.5 nM | IC50 [36]: 1.6 nM | IC50 [37]: 38 nM | IC50 [38]: 6 nM | IC50 [39]: 4.1 nM | IC50 [40]: 3.4 nM | EC50 [41]: 2.8 nM | EC50 [42]: 1650 nM | EC50 (Hepatitis C virus [43]): 4.5 nM | EC50 (Hepatitis C virus [44]): 136 nM | concentration at 1 h [45]: 204 µM
